Measured values: the supplement of paper PMC8617591

Assays:
[1] = test system: Mycobacterium tuberculosis Erdman (autoluminescent); test: AUC25, normalised area under dose response up to IC25 (three-drug combination) (fraction (0-1)); higher = more potent at low dose
Description: (§1)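 DiaMOND equipotent three-drug combination dose responses (10 doses, 1.5- or 2-fold spacing, centred on IC90) against autoluminescent M. tuberculosis Erdman in 8 in vitro models. Read-out is OD600, or luminescence for the intracellular and dormancy models, normalised to untreated wells. Hill-fit Einf, AUC25 and GRinf are potency metrics; FIC50 and FIC90 are total Loewe fractional inhibitory concentrations as log2 (negative = synergy).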

[2] = test system: Mycobacterium tuberculosis Erdman (autoluminescent); test: Einf, fitted maximum growth inhibition of three-drug combination (fraction); higher = stronger maximal inhibition
Description: as §1

[3] = test system: Mycobacterium tuberculosis Erdman (autoluminescent); test: total FIC50 (Loewe) at 50% inhibition, three-drug combination (log2); higher = more antagonistic
Description: as §1

[4] = test system: Mycobacterium tuberculosis Erdman (autoluminescent); test: total FIC90 (Loewe) at 90% inhibition, three-drug combination (log2); higher = more antagonistic
Description: as §1

[5] = test system: Mycobacterium tuberculosis Erdman (autoluminescent); test: GRinf, maximum normalised growth rate inhibition (three-drug combination) (unitless (-1 to 1)); higher = less effect (negative = killing)
Description: as §1

COc1nc2ccc(Br)cc2cc1[C@@H](c1ccccc1)[C@@](O)(CCN(C)C)c1cccc2ccccc12 [bedaquiline] + O=[N+]([O-])c1cn2c(n1)OC[C@@H](OCc1ccc(OC(F)(F)F)cc1)C2 [pretomanid] + CO[C@H]1/C=C/O[C@@]2(C)Oc3c(C)c(O)c4c(O)c(c(/C=N/N5CCN(C)CC5)c(O)c4c3C2=O)NC(=O)/C(C)=C\C=C\[C@H](C)[C@H](O)[C@@H](C)[C@@H](O)[C@@H](C)[C@H](OC(C)=O)[C@@H]1C [rifampicin]
Conditions | AUC25, [1] | Einf, [2] | GRinf, [5] | total FIC50, [3] | total FIC90, [4]
in vitro model: acidic pH 5.7, time point: constant (~7 days, model-specific) | 0.111 | 0.938 | -0.379 | 0.68 | –
in vitro model: acidic pH 5.7, time point: terminal (~4-5 doublings, model-specific) | 0.0826 | 0.993 | -0.38 | 0.724 | 0.613
in vitro model: intracellular J774, time point: constant = terminal | – | 0.978 | -0.416 | – | -0.222

Conditions | AUC25, [1] | Einf, [2] | GRinf, [5] | total FIC50, [3] | total FIC90, [4]
in vitro model: butyrate, time point: constant (~7 days, model-specific) | 0.106 | 0.931 | -0.0326 | 0.367 | 0.71
in vitro model: butyrate, time point: terminal (~4-5 doublings, model-specific) | 0.0986 | 0.977 | -0.041 | 0.237 | 0.69
in vitro model: cholesterol 0.05 mM, time point: constant (~7 days, model-specific) | 0.116 | 0.764 | -0.188 | 0.697 | –
in vitro model: cholesterol 0.05 mM, time point: terminal (~4-5 doublings, model-specific) | 0.0763 | 0.813 | 0.0382 | 0.812 | -0.454
in vitro model: cholesterol-high 0.2 mM, time point: constant (~7 days, model-specific) | 0.0584 | 0.921 | -0.229 | 1.22 | 1.66
in vitro model: cholesterol-high 0.2 mM, time point: terminal (~4-5 doublings, model-specific) | 0.0574 | 1 | -0.652 | 1.17 | 0.914
in vitro model: dormancy (butyrate + nitrate, low O2), time point: constant (~7 days, model-specific) | 0.0611 | 0.9 | 0.255 | 0.0572 | -0.559
in vitro model: dormancy (butyrate + nitrate, low O2), time point: terminal (~4-5 doublings, model-specific) | 0.0439 | 0.982 | -0.104 | 0.00851 | -0.259
in vitro model: standard 7H9 glycerol, time point: constant = terminal | 0.0794 | 0.937 | -0.1 | 0.14 | -0.371
in vitro model: valerate, time point: constant (~7 days, model-specific) | 0.103 | 0.897 | -0.11 | 1.04 | –
in vitro model: valerate, time point: terminal (~4-5 doublings, model-specific) | 0.0424 | 0.951 | -0.0825 | 1.09 | 0.566

COc1nc2ccc(Br)cc2cc1[C@@H](c1ccccc1)[C@@](O)(CCN(C)C)c1cccc2ccccc12 [bedaquiline] + O=[N+]([O-])c1cn2c(n1)OC[C@@H](OCc1ccc(OC(F)(F)F)cc1)C2 [pretomanid] + NC(=O)c1cnccn1 [pyrazinamide]
Conditions | AUC25, [1] | Einf, [2] | GRinf, [5] | total FIC50, [3] | total FIC90, [4]
in vitro model: acidic pH 5.7, time point: constant (~7 days, model-specific) | 0.0919 | 0.881 | -0.623 | 0.152 | -0.764
in vitro model: acidic pH 5.7, time point: terminal (~4-5 doublings, model-specific) | 0.0867 | 0.983 | -0.421 | 0.197 | 0.0646
in vitro model: intracellular J774, time point: constant = terminal | – | 0.972 | -0.386 | – | 0.176

Conditions | AUC25, [1] | Einf, [2] | GRinf, [5] | total FIC50, [3] | total FIC90, [4]
in vitro model: butyrate, time point: constant (~7 days, model-specific) | 0.119 | 0.946 | -0.193 | -0.0189 | 1.37
in vitro model: butyrate, time point: terminal (~4-5 doublings, model-specific) | 0.102 | 0.978 | -0.539 | 0.212 | 1.21
in vitro model: cholesterol 0.05 mM, time point: constant (~7 days, model-specific) | 0.115 | 0.748 | -0.231 | – | –
in vitro model: cholesterol 0.05 mM, time point: terminal (~4-5 doublings, model-specific) | 0.106 | 0.909 | -0.185 | 0.657 | –
in vitro model: cholesterol-high 0.2 mM, time point: constant (~7 days, model-specific) | 0.0759 | 0.934 | -0.252 | 0.548 | –
in vitro model: cholesterol-high 0.2 mM, time point: terminal (~4-5 doublings, model-specific) | 0.0678 | 0.998 | -0.58 | 0.646 | 0.318
in vitro model: dormancy (butyrate + nitrate, low O2), time point: constant (~7 days, model-specific) | 0.043 | 0.896 | 0.257 | -0.949 | -1.45
in vitro model: dormancy (butyrate + nitrate, low O2), time point: terminal (~4-5 doublings, model-specific) | 0.0578 | 0.983 | -0.0996 | -1.05 | -1.31
in vitro model: standard 7H9 glycerol, time point: constant = terminal | 0.0709 | 0.957 | -0.0903 | -0.132 | –
in vitro model: valerate, time point: constant (~7 days, model-specific) | 0.0952 | 0.866 | -0.0433 | 0.178 | –
in vitro model: valerate, time point: terminal (~4-5 doublings, model-specific) | 0.062 | 0.938 | -0.0146 | 0.143 | -0.0602

CC(C)/N=c1\cc2n(-c3ccc(Cl)cc3)c3ccccc3nc-2cc1Nc1ccc(Cl)cc1 [clofazimine] + CC(=O)NC[C@H]1CN(c2ccc(N3CCOCC3)c(F)c2)C(=O)O1 [linezolid] + CO[C@H]1/C=C/O[C@@]2(C)Oc3c(C)c(O)c4c(O)c(c(/C=N/N5CCN(C6CCCC6)CC5)c(O)c4c3C2=O)NC(=O)/C(C)=C\C=C\[C@H](C)[C@H](O)[C@@H](C)[C@@H](O)[C@@H](C)[C@H](OC(C)=O)[C@@H]1C [rifapentine]
Conditions | AUC25, [1] | Einf, [2] | GRinf, [5] | total FIC50, [3] | total FIC90, [4]
in vitro model: acidic pH 5.7, time point: constant (~7 days, model-specific) | 0.0854 | 0.874 | -0.12 | 0.564 | –
in vitro model: acidic pH 5.7, time point: terminal (~4-5 doublings, model-specific) | 0.0814 | 0.98 | -0.151 | 0.455 | 0.39
in vitro model: intracellular J774, time point: constant = terminal | – | 0.926 | -0.19 | – | -0.239

Conditions | AUC25, [1] | Einf, [2] | GRinf, [5] | total FIC50, [3] | total FIC90, [4]
in vitro model: butyrate, time point: constant (~7 days, model-specific) | 0.0929 | 0.918 | -0.00889 | 0.328 | 1.2
in vitro model: butyrate, time point: terminal (~4-5 doublings, model-specific) | 0.0457 | 0.943 | 0.0319 | 0.369 | -0.292
in vitro model: cholesterol 0.05 mM, time point: constant (~7 days, model-specific) | 0.126 | 0.731 | -0.0827 | -0.42 | –
in vitro model: cholesterol 0.05 mM, time point: terminal (~4-5 doublings, model-specific) | 0.136 | 0.942 | -0.212 | 0.236 | 0.563
in vitro model: cholesterol-high 0.2 mM, time point: constant (~7 days, model-specific) | 0.114 | 0.928 | -0.916 | 0.312 | 1.27
in vitro model: cholesterol-high 0.2 mM, time point: terminal (~4-5 doublings, model-specific) | 0.124 | 1 | -0.975 | 0.111 | 0.601
in vitro model: dormancy (butyrate + nitrate, low O2), time point: constant (~7 days, model-specific) | 0.0702 | 0.914 | 0.025 | 1.42 | 1.23
in vitro model: dormancy (butyrate + nitrate, low O2), time point: terminal (~4-5 doublings, model-specific) | 0.046 | 0.99 | -0.23 | 1.03 | 0.905
in vitro model: standard 7H9 glycerol, time point: constant = terminal | 0.105 | 0.945 | 0.00644 | 0.0429 | 0.805
in vitro model: valerate, time point: constant (~7 days, model-specific) | 0.113 | 0.883 | -0.112 | 0.974 | –
in vitro model: valerate, time point: terminal (~4-5 doublings, model-specific) | 0.0863 | 0.95 | -0.00893 | 0.608 | 1.24

CC(C)/N=c1\cc2n(-c3ccc(Cl)cc3)c3ccccc3nc-2cc1Nc1ccc(Cl)cc1 [clofazimine] + CC(=O)NC[C@H]1CN(c2ccc(N3CCOCC3)c(F)c2)C(=O)O1 [linezolid] + CO[C@H]1/C=C/O[C@@]2(C)Oc3c(C)c(O)c4c(O)c(c(/C=N/N5CCN(C)CC5)c(O)c4c3C2=O)NC(=O)/C(C)=C\C=C\[C@H](C)[C@H](O)[C@@H](C)[C@@H](O)[C@@H](C)[C@H](OC(C)=O)[C@@H]1C [rifampicin]
Conditions | AUC25, [1] | Einf, [2] | GRinf, [5] | total FIC50, [3] | total FIC90, [4]
in vitro model: acidic pH 5.7, time point: constant (~7 days, model-specific) | 0.0866 | 0.853 | -0.0709 | 0.38 | –
in vitro model: acidic pH 5.7, time point: terminal (~4-5 doublings, model-specific) | 0.0808 | 0.981 | -0.119 | 0.419 | 0.256
in vitro model: intracellular J774, time point: constant = terminal | – | 0.941 | -0.215 | – | -0.471

Conditions | AUC25, [1] | Einf, [2] | GRinf, [5] | total FIC50, [3] | total FIC90, [4]
in vitro model: butyrate, time point: constant (~7 days, model-specific) | 0.103 | 0.922 | -0.0328 | 0.22 | 0.103
in vitro model: butyrate, time point: terminal (~4-5 doublings, model-specific) | 0.07 | 0.95 | 0.00888 | 0.26 | -0.0854
in vitro model: cholesterol 0.05 mM, time point: constant (~7 days, model-specific) | 0.14 | 0.687 | 0.0599 | -0.708 | –
in vitro model: cholesterol 0.05 mM, time point: terminal (~4-5 doublings, model-specific) | 0.132 | 0.908 | -0.188 | 4.59 | -0.0601
in vitro model: cholesterol-high 0.2 mM, time point: constant (~7 days, model-specific) | 0.13 | 0.963 | -0.755 | 0.342 | 0.45
in vitro model: cholesterol-high 0.2 mM, time point: terminal (~4-5 doublings, model-specific) | 0.107 | 0.995 | -0.935 | 0.34 | 0.174
in vitro model: dormancy (butyrate + nitrate, low O2), time point: constant (~7 days, model-specific) | 0.0831 | 0.908 | 0.229 | 1.29 | 0.832
in vitro model: dormancy (butyrate + nitrate, low O2), time point: terminal (~4-5 doublings, model-specific) | 0.0549 | 0.979 | -0.148 | 0.408 | 0.6
in vitro model: standard 7H9 glycerol, time point: constant = terminal | 0.0962 | 0.917 | 0.0708 | 0.0668 | 0.29
in vitro model: valerate, time point: constant (~7 days, model-specific) | 0.0981 | 0.885 | -0.0893 | 0.928 | –
in vitro model: valerate, time point: terminal (~4-5 doublings, model-specific) | 0.058 | 0.942 | -0.0199 | 0.756 | 0.805
